Patent US8022035B2, “Y4 selective receptor agonists for therapeutic interventions” (7TM Pharma A/S, priority 2005, dated 2011)
Read-outs that look alike come from different tables or passages of the source. Where no end group is shown, it is not given here.

Tests used:
Format in all cases: cell-based
human Y2 receptor = target: T1, human Y2 receptor (Homo sapiens, UniProt P49146); assay: Human Y2 receptor potency assay (inositol phosphate turnover)
T1 construct: expressed in transfected cells; host or cells: COS-7 cells, transient transfection, co-transfected with Gqi5
T1 sequence (P49146 1-381): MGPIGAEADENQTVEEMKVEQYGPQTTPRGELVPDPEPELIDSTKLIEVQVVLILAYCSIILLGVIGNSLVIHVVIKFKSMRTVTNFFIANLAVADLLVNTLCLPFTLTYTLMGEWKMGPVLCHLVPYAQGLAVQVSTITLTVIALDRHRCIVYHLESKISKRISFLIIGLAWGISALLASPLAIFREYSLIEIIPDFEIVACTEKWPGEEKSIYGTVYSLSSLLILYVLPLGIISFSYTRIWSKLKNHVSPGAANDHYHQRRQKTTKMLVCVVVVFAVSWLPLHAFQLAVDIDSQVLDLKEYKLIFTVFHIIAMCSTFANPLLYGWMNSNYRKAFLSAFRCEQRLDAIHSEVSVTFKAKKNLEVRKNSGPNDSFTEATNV
Experimental: Potency of the test compounds on the human Y2 receptor is determined by performing dose-response experiments in COS-7 cells transiently transfected with the human Y2 receptor as well as a promiscuous G protein, Gqi5 which ensures that the Y2 receptor couples through a Gq pathway leading to an increase in inositol phosphate turnover. […] After stimulation with various concentrations of peptide for 45 min at 37 C, cells are extracted with 10% ice-cold perchloric acid followed by incubation on ice for 30 min. […] Determinations are made in duplicates.

human Y1 receptor = target: T2, human Y1 receptor (Homo sapiens, UniProt P25929); assay: Human Y1 receptor potency assay (inositol phosphate turnover)
T2 construct: expressed in transfected cells; host or cells: COS-7 cells
T2 sequence (P25929 1-384): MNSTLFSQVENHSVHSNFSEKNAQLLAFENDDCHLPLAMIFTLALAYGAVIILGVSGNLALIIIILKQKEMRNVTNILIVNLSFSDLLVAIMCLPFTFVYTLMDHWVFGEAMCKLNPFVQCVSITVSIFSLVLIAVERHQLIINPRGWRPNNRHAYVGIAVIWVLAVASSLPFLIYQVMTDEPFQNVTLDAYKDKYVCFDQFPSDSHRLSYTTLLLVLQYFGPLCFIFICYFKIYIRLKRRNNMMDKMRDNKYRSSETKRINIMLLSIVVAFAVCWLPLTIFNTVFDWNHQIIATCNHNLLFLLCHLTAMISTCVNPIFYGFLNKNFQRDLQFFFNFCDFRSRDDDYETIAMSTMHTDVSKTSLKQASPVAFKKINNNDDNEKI
Experimental: Cells are washed twice in buffer, 20 mM HEPES, pH 7.4, supplemented with 140 mM NaCl, 5 mM KCl, 1 mM MgSO4, 1 mM CaCl2, 10 mM glucose, 0.05% (w/v) bovine serum; and are incubated in 0.5 ml buffer supplemented with 10 mM LiCl at 37 C for 30 min. After stimulation with various concentrations of peptide for 45 min at 37 C, cells are extracted with 10% ice-cold perchloric acid followed by incubation on ice for 30 min. The resulting supernatants are neutralized with KOH in HEPES buffer, and the generated [3H]-inositol phosphate are purified on Bio-Rad AG 1-X8 anion-exchange resin and counted in a beta counter. Determinations are made in duplicates. EC50 values were calculated using a standard pharmacological data handling software, Prism 3.0 (graphpad Sofware, San Diego, USA).
Protocol as for the Y2 potency assay, except that human Y1-transformed COS-7 cells are used.

human Y4 receptor = target: T3, human Y4 receptor (Homo sapiens, UniProt P50391); assay: Human Y4 receptor potency assay (inositol phosphate turnover)
T3 construct: expressed in transfected cells; host or cells: COS-7 cells
Experimental: After stimulation with various concentrations of peptide for 45 min at 37 C, cells are extracted with 10% ice-cold perchloric acid followed by incubation on ice for 30 min. The resulting supernatants are neutralized with KOH in HEPES buffer, and the generated [3H]-inositol phosphate are purified on Bio-Rad AG 1-X8 anion-exchange resin and counted in a beta counter. Determinations are made in duplicates. […] Protocol as for the Y2 potency assay, except that human Y4-transformed COS-7 cells are used.

[1] = COS-7 cells transiently transfected with human Y2 receptor and Gqi5, [3H]-inositol phosphate turnover, peptide 45 min at 37 C, read-out: hY2 EC50
[2] = human Y1-transformed COS-7 cells, [3H]-inositol phosphate turnover, peptide 45 min at 37 C, read-out: hY1 EC50

T3 sequence (P50391 whole entry): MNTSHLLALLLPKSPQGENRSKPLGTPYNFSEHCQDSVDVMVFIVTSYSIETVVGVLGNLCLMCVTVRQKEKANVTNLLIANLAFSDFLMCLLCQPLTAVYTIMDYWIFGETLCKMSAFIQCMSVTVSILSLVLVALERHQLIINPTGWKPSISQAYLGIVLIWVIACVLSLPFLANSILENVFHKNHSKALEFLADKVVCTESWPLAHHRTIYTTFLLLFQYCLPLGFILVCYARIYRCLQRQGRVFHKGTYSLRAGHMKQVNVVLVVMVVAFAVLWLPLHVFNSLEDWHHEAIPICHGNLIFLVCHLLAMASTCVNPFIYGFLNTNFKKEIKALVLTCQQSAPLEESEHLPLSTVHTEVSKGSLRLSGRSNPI

| Compound | EC50 (human Y2 receptor; [1]) [nM] | EC50 (human Y1 receptor; [2]) [nM] | also measured |
| --- | --- | --- | --- |
| CC[C@H](C)[C@H](NC(=O)[C@H](Cc1ccc(O)cc1)NC(=O)[C@H](CCCNC(=N)N)NC(=O)[C@H](CCCNC(=N)N)NC(=O)[C@H](CC(C)C)NC(=O)[C@H](CC(=O)O)NC(=O)[C@H](C)NC(=O)[C@H](C)NC(=O)[C@H](Cc1ccc(O)cc1)NC(=O)[C@H](CCC(N)=O)NC(=O)[C@H](C)NC(=O)[C@H](CCSC)NC(=O)[C@H](CCC(N)=O)NC(=O)[C@H](CCC(=O)O)NC(=O)[C@@H]1CCCN1C(=O)[C@@H](NC(=O)[C@H](C)NC(=O)[C@H](CC(N)=O)NC(=O)[C@H](CCC(=O)O)NC(=O)CNC(=O)[C@@H]1CCCN1C(=O)[C@H](Cc1ccc(O)cc1)NC(=O)[C@@H](NC(=O)[C@@H]1CCCN1C(=O)[C@H](CCC(=O)O)NC(=O)[C@H](CC(C)C)NC(=O)[C@@H]1CCCN1)C(C)C)[C@@H](C)O)C(=O)N[C@@H](CC(N)=O)C(=O)N[C@@H](CCSC)C(=O)N[C@@H](CC(C)C)C(=O)N[C@H](C(=O)N[C@@H](CCCNC(=N)N)C(=O)N1CCC[C@H]1C(=O)N[C@@H](CCCNC(=N)N)C(=O)N[C@@H](Cc1ccc(O)cc1)C(N)=O)[C@@H](C)O [[Glu-10]-PP(2-36), [Glu10]PP2-36] | – | – | EC50 (human Y2 receptor): > 1000 nM |
| PLEPVYPGENATPEQLAQYAADLRRYINTLTRPRY-NH2 [[Glu10;Leu17;Thr-30]-PP(2-36), [Glu10, Leu17, Thr30]PP2-36] | – | – | EC50 (human Y2 receptor): > 1000 nM; EC50 (human Y4 receptor): 1.07 nM; EC50 (human Y1 receptor): > 1000 nM |
| CCCC[C@H](NC(=O)[C@H](CCC(N)=O)NC(=O)[C@H](CCC(=O)O)NC(=O)[C@@H]1CCCN1C(=O)[C@@H](NC(=O)[C@H](C)NC(=O)[C@H](CC(N)=O)NC(=O)[C@H](CC(=O)O)NC(=O)CNC(=O)[C@@H]1CCCN1C(=O)[C@H](Cc1ccc(O)cc1)NC(=O)[C@@H](NC(=O)[C@@H]1CCCN1C(=O)[C@H](CCC(=O)O)NC(=O)[C@H](CC(C)C)NC(=O)[C@@H]1CCCN1)C(C)C)[C@@H](C)O)C(=O)N[C@@H](C)C(=O)N[C@@H](CCC(N)=O)C(=O)N[C@@H](Cc1ccc(O)cc1)C(=O)N[C@@H](C)C(=O)N[C@@H](C)C(=O)N[C@@H](CC(=O)O)C(=O)N[C@@H](CC(C)C)C(=O)N[C@@H](CCCNC(=N)N)C(=O)N[C@@H](CCCNC(=N)N)C(=O)N[C@@H](Cc1ccc(O)cc1)C(=O)N[C@H](C(=O)N[C@@H](CC(N)=O)C(=O)N[C@@H](CCCC)C(=O)N[C@@H](CC(C)C)C(=O)N[C@H](C(=O)N[C@@H](CCCNC(=N)N)C(=O)N1CCC[C@H]1C(=O)N[C@@H](CCCNC(=N)N)C(=O)N[C@@H](Cc1ccc(O)cc1)C(N)=O)[C@@H](C)O)[C@@H](C)CC [[Nle17,Nle30]-PP(2-36), [Nle17, Nle30]PP2-36] | > 1000 | – | – |

Further lines, with some results ahead:

| EC50 (human Y2 receptor; [1]) [nM] | EC50 (human Y1 receptor; [2]) [nM] | Compound | also measured |
| --- | --- | --- | --- |
| > 1000 | > 1000 | PLEPVYPGDNATPEQMAQYAADLRRYINQLTRPRY-NH2 [[Gln-30]-PP(2-36), [Gln30]PP2-36] | – |
| > 1000 | > 1000 | PLEPVYPGDNATPEQMAQYAADLRRYINALTRPRY-NH2 [[Ala-30]-PP(2-36), [Ala30]PP2-36] | – |
| > 1000 | > 1000 | PLEPVYPGDNATPEQMAQYAADLRRYINNLTRPRY-NH2 [[Asn-30]-PP(2-36), [Asn30]PP2-36] | – |
| > 1000 | > 1000 | PLEPVYPGDNATPEQMAQYAADLRRYINTLTRPRY-NH2 [[Thr-30]-PP(2-36), [Thr30]PP2-36] | EC50 (human Y4 receptor; human Y4-transformed COS-7 cells, [3H]-inositol phosphate turnover, peptide 45 min at 37 C, read-out: hY4 EC50): 1.07 nM |
